Measured values published in ChEMBL document CHEMBL5303573, “Mapping human microbiome drug metabolism by gut bacteria and their genes” (Nature, 2019).

Columns and labels:
[1] = The drug is tested on Eggerthella lenta strain: ATCC25559 for biotransformation. The drug concentrations were measured before and after a 12-h incubation by liquid-chromatography-coupled mass spectrometry (LC–MS); details: 2 µM
[2] = The drug is tested on Bacteroides cellulosilyticus strain: DSM14838 for biotransformation. The drug concentrations were measured before and after a 12-h incubation by liquid-chromatography-coupled mass spectrometry (LC–MS); details: 2 µM
[3] = The drug is tested on Bacteroides coprophilus strain: DSM18228 for biotransformation. The drug concentrations were measured before and after a 12-h incubation by liquid-chromatography-coupled mass spectrometry (LC–MS); details: 2 µM
[4] = The drug is tested on Bacteroides dorei strain: DSM17855 for biotransformation. The drug concentrations were measured before and after a 12-h incubation by liquid-chromatography-coupled mass spectrometry (LC–MS); details: phocaeicola dorei, 2 µM
[5] = The drug is tested on Bacteroides fragilis strain: ATCC43859 for biotransformation. The drug concentrations were measured before and after a 12-h incubation by liquid-chromatography-coupled mass spectrometry (LC–MS); details: 2 µM
[6] = The drug is tested on Bacteroides ovatus strain: ATCC8483 for biotransformation. The drug concentrations were measured before and after a 12-h incubation by liquid-chromatography-coupled mass spectrometry (LC–MS); details: 2 µM
[7] = The drug is tested on Bacteroides sp. WH2 strain: WH2 for biotransformation. The drug concentrations were measured before and after a 12-h incubation by liquid-chromatography-coupled mass spectrometry (LC–MS); details: bacteroides sp. wh2, 12 h, 2 µM
[8] = The drug is tested on Bacteroides xylanisolvens strain: DSM18836 for biotransformation. The drug concentrations were measured before and after a 12-h incubation by liquid-chromatography-coupled mass spectrometry (LC–MS); details: 2 µM
[9] = The drug is tested on Blautia luti strain: DSM14534 for biotransformation. The drug concentrations were measured before and after a 12-h incubation by liquid-chromatography-coupled mass spectrometry (LC–MS); type: ADME; design: dose 2 uM, timepoint 0 vs 12 hours; details: 2 µM
[10] = The drug is tested on Clostridium ramosum strain: DSM1402 for biotransformation. The drug concentrations were measured before and after a 12-h incubation by liquid-chromatography-coupled mass spectrometry (LC–MS); details: thomasclavelia ramosa, 2 µM
[11] = The drug is tested on Clostridium symbiosum strain: ATCC14940 for biotransformation. The drug concentrations were measured before and after a 12-h incubation by liquid-chromatography-coupled mass spectrometry (LC–MS); details: 2 µM
[12] = The drug is tested on Coprococcus comes strain: ATCC27758 for biotransformation. The drug concentrations were measured before and after a 12-h incubation by liquid-chromatography-coupled mass spectrometry (LC–MS); type: ADME; design: dose 2 uM, timepoint 0 vs 12 hours; details: 2 µM
[13] = The drug is tested on Enterococcus faecalis strain: V583 for biotransformation. The drug concentrations were measured before and after a 12-h incubation by liquid-chromatography-coupled mass spectrometry (LC–MS); details: 2 µM
[14] = The drug is tested on Eubacterium ventriosum strain: ATCC27560 for biotransformation. The drug concentrations were measured before and after a 12-h incubation by liquid-chromatography-coupled mass spectrometry (LC–MS); type: ADME; design: dose 2 uM, timepoint 0 vs 12 hours; details: 2 µM
[15] = The drug is tested on Ruminococcus torques strain: ATCC27756 for biotransformation. The drug concentrations were measured before and after a 12-h incubation by liquid-chromatography-coupled mass spectrometry (LC–MS); type: ADME; design: dose 2 uM, timepoint 0 vs 12 hours; details: 2 µM
[16] = The drug is tested on Edwardsiella tarda strain: ATCC23685 for biotransformation. The drug concentrations were measured before and after a 12-h incubation by liquid-chromatography-coupled mass spectrometry (LC–MS); details: 2 µM
[17] = The drug is tested on Providencia rettgeri strain: DSM1131 for biotransformation. The drug concentrations were measured before and after a 12-h incubation by liquid-chromatography-coupled mass spectrometry (LC–MS); type: ADME; design: dose 2 uM, timepoint 0 vs 12 hours; details: 2 µM
[18] = bacteroides eggerthii, 12 h, 2 µM
Description: The drug is tested on Bacteroides eggerthii strain: DSM20697 for biotransformation. The drug concentrations were measured before and after a 12-h incubation by liquid-chromatography-coupled mass spectrometry (LC–MS)

[19] = bacteroides thetaiotaomicron, 12 h, 2 µM
Description: The drug is tested on Bacteroides thetaiotaomicron strain: 7330 for biotransformation. The drug concentrations were measured before and after a 12-h incubation by liquid-chromatography-coupled mass spectrometry (LC–MS)

[20] = akkermansia muciniphila, 12 h, 2 µM
Description: The drug is tested on Akkermansia muciniphila strain: ATCC BAA-835 for biotransformation. The drug concentrations were measured before and after a 12-h incubation by liquid-chromatography-coupled mass spectrometry (LC–MS)

- Bacterial Biotransformation [1]: Compound metabolized
- Bacterial Biotransformation [2]: Compound metabolized
- Bacterial Biotransformation [3]: Compound metabolized
- Bacterial Biotransformation [4]: Compound metabolized
- Bacterial Biotransformation [5]: Compound metabolized
- Bacterial Biotransformation [6]: Compound metabolized
- Bacterial Biotransformation [7]: Compound metabolized
- Bacterial Biotransformation [8]: Compound metabolized
- Bacterial Biotransformation [9]: Compound metabolized
- Bacterial Biotransformation [10]: Compound metabolized
- Bacterial Biotransformation [11]: Compound NOT metabolized
- Bacterial Biotransformation [12]: Compound metabolized
- Bacterial Biotransformation [13]: Compound metabolized
- Bacterial Biotransformation [14]: Compound metabolized
- Bacterial Biotransformation [15]: Compound metabolized
- Bacterial Biotransformation [16]: Compound metabolized
- Bacterial Biotransformation [17]: Compound metabolized
- Bacterial Biotransformation [18]: Compound metabolized
- Bacterial Biotransformation [19]: Compound metabolized
- Bacterial Biotransformation [20]: Compound NOT metabolized
SMILES: CC(=O)OCC(=O)NCCCOc1cccc(CN2CCCCC2)c1 [ROXATIDINE ACETATE]
